target: Cathepsin D (Homo sapiens, UniProt P07339); experiment: Assay 3: cathepsin D inhibition activity (non-cellular assay, chromogenic substrate); type: biochemical; parameters: Frozen human placental tissue was thawed and homogenized; from tissue; host or cells: human placenta; settings: 4 µM test compound; inhibition of initial rate relative to control; cathepsin D from human placental tissue; read-out: % inhibition at 4µ M
Method: A third non-cellular assay for determining in vitro aspartyl protease inhibitory activity is generally described in Jupp, R.A. et al., (1990) Biochem. J., 265:871-878 and Rao et al., J. Med. Chem. (1993), in press. The assay is carried out by incubating a test compound with a suitable aspartyl protease, such as cathepsin D, in the presence of a chromogenic substrate. The inhibition constant, Ki, value may then be determined by quantifying the competitive inhibition of the hydrolysis of the chromogenic substrate. A variety of chromogenic substrates that are useful for assaying aspartyl protease activity are discussed in Dunn, et al., (1986) Biochem. J., 237:899-906. A preferred chromogenic substrate for a cathepsin D assay is disclosed in Scarborough, P.E. et al., Protein Science, (1993), 2:264-276.
Concentrations of substrate solutions and cleavage products may be verified using amino acid analysis. The enzyme preparations may be titrated with a tightly binding inhibitor to quantitate the active concentration of the enzyme. Enzyme concentrations are typically in the range of from 1-6 nM. Stock solutions of the test compound are prepared at concentrations ranging from 1.0 to 5.0 mg/mL, and then 50-100 µL portions of these stock solutions may be further diluted to a concentration in the range of 5 to 300 µM for rate determinations.
[…] Then, the test compounds are assayed over a concentration range of, for example, 5 to 300 µM for rate determinations.
A decrease in absorbance in the range of 284-324 nm may be monitored using a spectrophotometer. Absorbance readings are typically taken at various timepoints. The initial velocities are then plotted versus the initial substrate concentration. […] Estimates of Ki may then be determined using the Dixon construction. Dixon, M., (1953) Biochem J., 55:170-171.
If the ratio of the total active enzyme concentration to the estimated Ki value ([E]t/Ki) is less than 0.2, then the precise Ki value may be computed by using a non-linear curve fitting program based on the equation: v= Vmax [S]/[S] + Km (1 + [I]/Ki ) [formula] where v is the initial rate, [S] is the initial substrate concentration, [I] is the inhibitor concentration and Km and Ki are defined above. […] P.J.F., (1972) Biochem J., 127:321-333. This Assay is exemplfied in Assay 3.
The homogenate was centrifuged at 10,000 rpm for 30 minutes in a Sorvall GSA rotor. The supernatant was adjusted to pH 3.7 using 5.7N HCl and then sodium acetate was added to a concentration of 0.1M. The resultant mixture was incubated for 30 minutes at 0°C, resulting in the formation of a precipitate. This precipitate was removed by centrifugation (30 minutes, 10,000 rpm). The acidic supernatent was applied to a chromatography column (pepstatinyl agarose equilibrated with 0.1M sodium acetate, pH 3.5, 0.1% Brij 35, and 1M NaCl), washed until the OD₂₈₀ of the effluent returned to baseline, and then eluted with 50mM Tris-HCl, pH 8.6, 0.1% Brij 35, and 1M NaCl. The eluent was dialyzed against 10mM sodium phosphate, pH 7.0, 0.1% Brij 35, and 0.1M NaCl, and then applied to a 1 mL DEAE-Sephacel column equilibrated with the same buffer. Cathepsin D was recovered in the breakthrough fraction.
The enzyme mixture (125 µL buffer (0.1M sodium formate at pH 3.7), 1 µL of a 1mM solution of test compound, 4 µL of DMSO, enzyme and water to provide a total volume of 230 µL) was vortexed and prewarmed for four minutes before the addition of the chromogenic substrate. After warming, the enzyme mixture was added to 20 µL of a […] dilution of substrate solution. A control reaction mixture was similarly prepared without the addition of the test compound. The percent of inhibition of the initial rate of reaction in the presence of a particular concentration of test compound (i.e. 4 µM) may be determined for the test compound by monitoring the reaction mixture in parallel to the control reaction. […]

Cathepsin D, sequence (P07339 169-412 limits assumed): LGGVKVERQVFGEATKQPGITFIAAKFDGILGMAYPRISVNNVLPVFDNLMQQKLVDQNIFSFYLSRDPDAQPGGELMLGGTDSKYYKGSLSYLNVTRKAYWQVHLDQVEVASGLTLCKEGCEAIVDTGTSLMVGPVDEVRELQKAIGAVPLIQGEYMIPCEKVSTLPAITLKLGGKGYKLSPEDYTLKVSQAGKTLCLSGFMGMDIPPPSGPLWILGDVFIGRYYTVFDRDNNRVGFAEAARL
Cathepsin D, sequence (P07339 65-162 limits assumed): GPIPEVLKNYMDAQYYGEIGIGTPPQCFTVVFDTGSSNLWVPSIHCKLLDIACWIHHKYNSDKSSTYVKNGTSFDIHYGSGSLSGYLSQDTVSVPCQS

Point of comparison: `CC(C)(C)NC(=O)c1ccccc1C[C@@H](O)[C@H](Cc1ccccc1)NC(=O)[C@H](CC(=O)O)NC(=O)c1ccc2ccccc2n1` [Example 15, [1S-(1R*,R*,5S*)]-N-(1-(2-Hydroxy-2-oxoethyl)-2-oxo-3-aza-4-phenylmethyl-5-hydroxy-6-(2-(1-t-butylamino-1-oxomethyl)phenyl)hexyl)-2-quinolinyl carboxamide], inhibition at 4 µM 49%. Against it:
- CC[C@H](C)[C@H](NC(=O)OCc1ccc2ccccc2n1)C(=O)N[C@@H](Cc1ccccc1)[C@@H]1O[C@@H]1[C@H](Cc1ccccc1)NC(=O)[C@@H](NC(=O)OCc1ccc2ccccc2n1)[C@@H](C)CC [Example 3, 1,6-Diphenyl-2(S);5(S)-di[N-[2(S)-N[(quinolin-2-ylmethoxy)carbonyl]amino-3(S)-methylpentanoyl]amino]-3,4-cis-epoxyhexane] — lower, 40%
- CC(C)(C)NC(=O)c1sccc1C[C@@H](O)[C@H](Cc1ccccc1)NC(=O)[C@H](CC(N)=O)NC(=O)c1ccc2ccccc2n1 [Example 14, [1S-(1R*,4R*,5S*)]-N-(1-(2-Amino-2-oxoethyl)-2-oxo-3-aza-4-phenylmethyl-5-hydroxy-6-(2-(1-t-butylamino-1-oxomethyl)thien-3-yl)hexyl)-2-quinolinyl carboxamide] — lower, 22%
- CC(C)(C)NC(=O)c1ccccc1C[C@@H](O)[C@H](Cc1ccccc1)NC(=O)[C@H](CC(=O)NCc1ccccn1)NC(=O)c1ccc2ccccc2n1 [Example 16, [1S-(1R*,4R*,5S*)]-N-(1-(2-(N-2-Pyridylmethyl)amino)-2-oxoethyl]-2-oxo-3-aza-4-phenylmethyl-5-hydroxy-6-(2-(1-t-butylamino-1-oxomethyl)phenyl)hexyl)-2-quinolinyl carboxamide] — lower, 36%
- CC(C)(C)NC(=O)c1ccccc1C[C@@H](O)[C@H](Cc1ccccc1)NC(=O)[C@H](CC(N)=O)NC(=O)c1cc(Cl)c2ccccc2n1 [Example 19, [1S-(1R*,4R*,5S*)]-N-(1-(2-Amino-2-oxoethyl)-2-oxo-3-aza-4-phenylmethyl-5-hydroxy-6-(2-(1-t-butylamino-1-oxomethyl)phenyl)hexyl)-4-chloroquinolin-2-yl carboxamide] — lower, 48%

same assay, conditions: cathepsin D from human placental tissue, chromogenic substrate, pH 3.7, 37°C

Point of comparison: `CC(C)(C)NC(=O)c1ccccc1CC(O)C(Cc1ccccc1)NC(=O)C(CC(N)=O)NC(=O)c1ccc2ccccc2n1` (stereo not drawn) [Example 6, [1S-(1R*,4R*,5S*)]-N-[1-(2-amino-2-oxoethyl)-2-oxo-3-aza-4-phenylmethyl-5-hydroxy-6-(2-(1-t-butylamino-1-oxomethyl)phenyl)hexyl]-2-quinolinyl carboxamide], Ki 1.8 ± 0.26 µM. Against it:
- CC(C)C(NC(=O)OCc1ccccc1)C(=O)NC(Cc1ccccc1)C1OC1C(Cc1ccccc1)NC(=O)C(NC(=O)OCc1ccccc1)C(C)C [Example 1, 1,6-Diphenyl-2(S);5(S)-di[N-[2(S)-N(benzyloxycarbonyl)amino-3-methyl-butanoyl]amino]-3,4-cis-epoxyhexane] — 1.6-fold lower, 1.16 ± 0.26 µM
- CC[C@H](NC(=O)OCc1ccccc1)C(=O)N[C@@H](Cc1ccccc1)[C@@H]1O[C@@H]1[C@H](Cc1ccccc1)NC(=O)[C@H](CC)NC(=O)OCc1ccccc1 [Example 2, 1,6-Diphenyl-2(S);5(S)-di[N-[2(S)-N(benzyloxycarbonyl)aminobutanoyl]amino]-3,4-cis-epoxyhexane] — 2.4-fold lower, 0.75 ± 0.14 µM
- CCC(NC(=O)N(C)Cc1ccc2ccccc2n1)C(=O)NC(Cc1ccccc1)C1OC1C(Cc1ccccc1)NC(=O)C(CC)NC(=O)N(C)Cc1ccc2ccccc2n1 [Example 4, 1,6-Diphenyl-2(S);5(S)-di[N-[2(S)-N-[[N(methyl)-N(quinolin-2-ylmethyl)amino]carbonyl]aminobutanoyl]amino]-3,4-cis-epoxyhexane] — 3.4-fold higher, 6.2 µM
- CCC(C)C(NC(=O)N(C)Cc1ccc2ccccc2n1)C(=O)NC(Cc1ccccc1)C1OC1C(Cc1ccccc1)NC(=O)C(NC(=O)N(C)Cc1ccc2ccccc2n1)C(C)CC [Example 5, 1,6-Diphenyl-2(S);5(S)-di[N-[2(S)-N[[N(methyl)-N(quinolin-2-ylmethyl)amino]carbonyl]amino-3(S)-methylpentanoyl]amino]-3,4-cis-epoxyhexane] — 7.5-fold lower, 0.24 µM
- Cc1ccc(CC(O)C(Cc2ccccc2)NC(=O)C(CC(N)=O)NC(=O)c2ccc3ccccc3n2)c(C(=O)NC(C)(C)C)c1 (stereo not drawn) [Example 7, [1S-(1R*,4R*,5S*)]-N-[1-(2-Amino-2-oxoethyl)-2-oxo-3-aza-4-phenylmethyl-5-hydroxy-6-(2-(1-t-butylamino-1-oxomethyl)-4-methylphenyl)hexyl]-2-quinolinyl carboxamide] — 4.3-fold lower, 0.42 ± 0.06 µM
- Cc1ccc2ccc(C(=O)N[C@@H](CC(N)=O)C(=O)N[C@@H](Cc3ccccc3)[C@H](O)Cc3ccccc3C(=O)NC(C)(C)C)nc2c1 [Example 8, [lS-(1R*,4R*,5S*)]-N-(1-(2-amino-2-oxoethyl)-2-oxo-3-aza-4-phenylmethyl-5-hydroxy-6-(2-(1-t-butylamino-1-oxomethyl)phenyl)hexyl)-7-methylquinolin-2-yl carboxamide] — 1.5-fold lower, 1.17 µM
- Cc1cc(C(=O)N[C@@H](CC(N)=O)C(=O)N[C@@H](Cc2ccccc2)[C@H](O)Cc2ccccc2C(=O)NC(C)(C)C)nc2ccccc12 [Example 10, [1S-(1R*,4R*,5S*)]-N-(1-(2-Amino-2-oxoethyl)-2-oxo-3-aza-4-phenylmethyl-5-hydroxy-6-(2-(1-t-butylamino-1-oxomethyl)phenyl)hexyl)-4-methylquinolin-2-yl carboxamide] — 3.1-fold higher, 5.51 µM
- CC(C)(C)NC(=O)c1ccccc1CC(O)C(Cc1ccccc1)NC(=O)C(CC(=O)NCc1ncc[nH]1)NC(=O)c1ccc2ccccc2n1 (stereo not drawn) [Example 17, [1S-(1R*,4R*,5S*)]-N-(1-(2-(N-2-Imidazolylmethyl)amino)-2-oxoethyl)-2-oxo-3-aza-4-phenylmethyl-5-hydroxy-6-(2-(1-t-butylamino-1-oxomethyl)phenyl)hexyl)-2-quinolinyl carboxamide] — within 1.5-fold, 2.3 ± 0.2 µM
- CC(C)(C)NC(=O)c1ccccc1C[C@@H](O)[C@H](Cc1ccccc1)NC(=O)[C@H](CC(=O)NCc1nc2ccccc2[nH]1)NC(=O)c1ccc2ccccc2n1 [Example 18, [1S-(1R*,4R*,5S*)]-N-(1-(2-(N-2-Benzimidazolylmethyl)amino)-2-oxoethyl)-2-oxo-3-aza-4-phenylmethyl-5-hydroxy-6-(2-(1-t-butylamino-1-oxomethyl)phenyl)hexyl)-2-quinolinyl carboxamide] — within error, 2.2 ± 0.2 µM
- CC(C)(C)NC(=O)c1ccccc1CC(O)C(Cc1ccccc1)NC(=O)C(CC(N)=O)NC(=O)c1ccc2cccc(C(F)(F)F)c2n1 (stereo not drawn) [Example 22, [1S-(1R*,4R*,5S*)]-N-(1-(2-Amino-2-oxoethyl)-2-oxo-3-aza-4-phenylmethyl-5-hydroxy-6-(2-(1-t-butylamino-1-oxomethyl)phenyl)hexyl)-8-trifluoromethyl-quinolin-2-yl carboxamide] — 2-fold lower, 0.9 ± 0.1 µM
- CC(C)(C)NC(=O)c1ccccc1CC(O)C(Cc1ccccc1)NC(=O)C(CC(N)=O)NC(=O)C(Cc1cccc2ccccc12)NC(=O)OC(C)(C)C (stereo not drawn) [Example 25, [2R-(2R*,3S*,6S*,9R*)]-N-t-Butyl-2-[2-hydroxy-3-phenylmethyl-4,7-diaza-5,8-dioxo-6-(2-amino-2-oxoethyl)-9-N(t-butoxycarbonyl)amino-10-naphth-1-yl]decyl benzamide] — within error, 1.44 ± 0.26 µM
